Laboratory results from ChEMBL document CHEMBL1221248, “Synthesis and SAR of (piperazin-1-yl-phenyl)-arylsulfonamides: a novel series of atypical antipsychotic agents” (Bioorg Med Chem Lett, 2010).
Calls of active or inactive are those of the source. No cut-off for these calls is given here.

Experiments:
[1] = molecular target: 5-hydroxytryptamine receptor 2A (Homo sapiens, UniProt P28223); experiment: Displacement of [3H]ketanserin from human 5HT2A expressed in CHOKI cells; format: cell-based
D(4) dopamine receptor = molecular target: T1, D(4) dopamine receptor (Homo sapiens, UniProt P21917); experiment: Displacement of [3H]spiperone from human dopamine D4 receptor expressed in CHOKI cells; format: cell-based
T1 sequence (P21917 whole entry): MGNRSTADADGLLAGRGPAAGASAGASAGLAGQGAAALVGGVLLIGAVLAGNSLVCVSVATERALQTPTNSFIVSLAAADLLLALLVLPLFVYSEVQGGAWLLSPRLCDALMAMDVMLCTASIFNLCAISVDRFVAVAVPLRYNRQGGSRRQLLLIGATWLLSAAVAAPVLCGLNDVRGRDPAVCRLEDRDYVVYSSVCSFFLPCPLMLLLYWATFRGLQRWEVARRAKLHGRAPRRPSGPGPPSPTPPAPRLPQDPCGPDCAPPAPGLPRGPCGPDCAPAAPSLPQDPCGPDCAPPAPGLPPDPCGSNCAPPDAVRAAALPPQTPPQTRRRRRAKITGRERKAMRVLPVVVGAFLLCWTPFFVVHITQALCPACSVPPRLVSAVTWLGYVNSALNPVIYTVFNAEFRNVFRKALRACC

[2] = molecular target: T2, 5-hydroxytryptamine receptor 6 (Homo sapiens, UniProt P50406); experiment: Displacement of [3H]LSD from human 5HT6 receptor expressed in HEK293 cells; format: cell-based
Target sequence in this assay (P50406 whole entry): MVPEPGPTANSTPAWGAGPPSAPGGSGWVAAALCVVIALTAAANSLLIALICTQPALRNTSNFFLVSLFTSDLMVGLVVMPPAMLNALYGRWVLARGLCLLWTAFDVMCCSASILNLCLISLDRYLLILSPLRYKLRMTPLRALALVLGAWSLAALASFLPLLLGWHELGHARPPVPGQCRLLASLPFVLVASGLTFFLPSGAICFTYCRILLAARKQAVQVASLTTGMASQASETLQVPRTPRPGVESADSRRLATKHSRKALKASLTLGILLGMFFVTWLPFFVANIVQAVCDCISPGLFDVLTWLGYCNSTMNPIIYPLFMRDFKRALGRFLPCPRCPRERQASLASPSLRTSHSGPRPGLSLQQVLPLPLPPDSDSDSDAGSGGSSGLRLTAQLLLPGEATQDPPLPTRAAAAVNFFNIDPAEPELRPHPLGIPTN

[3] = molecular target: 5-hydroxytryptamine receptor 7 (Homo sapiens, UniProt P34969); experiment: Displacement of [3H]LSD from human 5HT7 expressed in CHOKI cells; format: cell-based
5-hydroxytryptamine receptor 7, sequence (P34969 whole entry): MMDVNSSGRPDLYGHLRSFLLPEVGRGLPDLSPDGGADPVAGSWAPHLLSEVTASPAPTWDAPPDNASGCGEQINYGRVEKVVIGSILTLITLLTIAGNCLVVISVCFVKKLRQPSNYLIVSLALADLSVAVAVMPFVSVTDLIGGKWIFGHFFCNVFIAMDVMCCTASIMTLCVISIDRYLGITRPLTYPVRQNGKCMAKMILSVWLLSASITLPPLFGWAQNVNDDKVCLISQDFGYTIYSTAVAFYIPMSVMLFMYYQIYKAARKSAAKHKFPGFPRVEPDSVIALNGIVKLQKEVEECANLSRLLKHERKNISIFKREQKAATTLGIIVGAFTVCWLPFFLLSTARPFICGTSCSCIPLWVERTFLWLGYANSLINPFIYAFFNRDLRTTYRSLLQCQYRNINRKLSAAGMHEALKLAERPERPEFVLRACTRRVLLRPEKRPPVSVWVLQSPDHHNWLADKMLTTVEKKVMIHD

[4] = molecular target: T3, 5-hydroxytryptamine receptor 1A (Homo sapiens, UniProt P08908); experiment: Displacement of [3H]8-OH-DPAT from human 5HT1A expressed in CHOKI cells; format: cell-based
T3 sequence (P08908 whole entry): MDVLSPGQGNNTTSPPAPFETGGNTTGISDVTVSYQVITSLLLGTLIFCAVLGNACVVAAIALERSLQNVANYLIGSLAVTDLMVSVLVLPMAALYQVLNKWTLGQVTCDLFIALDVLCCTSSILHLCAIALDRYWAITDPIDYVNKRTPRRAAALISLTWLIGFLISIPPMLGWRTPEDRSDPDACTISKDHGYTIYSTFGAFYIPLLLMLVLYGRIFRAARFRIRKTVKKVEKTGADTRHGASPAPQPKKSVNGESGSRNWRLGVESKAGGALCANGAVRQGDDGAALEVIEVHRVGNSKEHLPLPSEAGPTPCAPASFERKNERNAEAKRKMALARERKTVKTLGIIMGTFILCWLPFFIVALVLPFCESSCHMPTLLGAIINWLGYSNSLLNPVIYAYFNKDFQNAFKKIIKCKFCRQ

D(2) dopamine receptor = D(2) dopamine receptor (Homo sapiens, UniProt P14416); experiment: Displacement of [3H]spiperone from human dopamine D2 expressed in CHOKI cells; format: cell-based
D(2) dopamine receptor, sequence (P14416 whole entry): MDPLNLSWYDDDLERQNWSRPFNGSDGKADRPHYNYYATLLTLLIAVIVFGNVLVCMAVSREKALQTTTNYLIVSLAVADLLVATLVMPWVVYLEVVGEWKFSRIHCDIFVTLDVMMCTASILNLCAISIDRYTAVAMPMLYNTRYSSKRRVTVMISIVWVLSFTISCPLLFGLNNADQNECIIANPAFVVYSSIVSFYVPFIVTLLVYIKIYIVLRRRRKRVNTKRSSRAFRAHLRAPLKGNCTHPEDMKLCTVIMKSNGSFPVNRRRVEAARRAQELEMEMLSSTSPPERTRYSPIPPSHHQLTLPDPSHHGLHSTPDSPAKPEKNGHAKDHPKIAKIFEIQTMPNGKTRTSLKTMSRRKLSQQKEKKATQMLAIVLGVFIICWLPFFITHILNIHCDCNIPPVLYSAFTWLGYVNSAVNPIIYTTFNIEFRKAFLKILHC

[5] = molecular target: T4, 5-hydroxytryptamine receptor 2C (Homo sapiens, UniProt P28335); experiment: Displacement of [3H]mesulergine from human 5HT2C expressed in CHOKI cells; format: cell-based
T4 sequence (P28335 whole entry): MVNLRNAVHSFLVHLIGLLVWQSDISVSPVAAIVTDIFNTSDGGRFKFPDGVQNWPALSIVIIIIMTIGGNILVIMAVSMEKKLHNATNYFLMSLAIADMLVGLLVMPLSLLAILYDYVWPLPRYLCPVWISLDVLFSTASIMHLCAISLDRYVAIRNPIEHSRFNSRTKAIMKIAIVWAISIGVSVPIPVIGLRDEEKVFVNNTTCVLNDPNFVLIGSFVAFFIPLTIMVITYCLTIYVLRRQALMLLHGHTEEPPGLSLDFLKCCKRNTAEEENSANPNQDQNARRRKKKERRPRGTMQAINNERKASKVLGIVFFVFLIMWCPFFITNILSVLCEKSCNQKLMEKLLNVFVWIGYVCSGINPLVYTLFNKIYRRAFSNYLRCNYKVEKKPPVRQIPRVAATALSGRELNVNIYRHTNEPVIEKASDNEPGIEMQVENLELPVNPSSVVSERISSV

D(3) dopamine receptor = D(3) dopamine receptor (Homo sapiens, UniProt P35462); experiment: Displacement of [3H]spiperone from human dopamine D3 receptor expressed in CHOKI cells; format: cell-based
D(3) dopamine receptor, sequence (P35462 whole entry): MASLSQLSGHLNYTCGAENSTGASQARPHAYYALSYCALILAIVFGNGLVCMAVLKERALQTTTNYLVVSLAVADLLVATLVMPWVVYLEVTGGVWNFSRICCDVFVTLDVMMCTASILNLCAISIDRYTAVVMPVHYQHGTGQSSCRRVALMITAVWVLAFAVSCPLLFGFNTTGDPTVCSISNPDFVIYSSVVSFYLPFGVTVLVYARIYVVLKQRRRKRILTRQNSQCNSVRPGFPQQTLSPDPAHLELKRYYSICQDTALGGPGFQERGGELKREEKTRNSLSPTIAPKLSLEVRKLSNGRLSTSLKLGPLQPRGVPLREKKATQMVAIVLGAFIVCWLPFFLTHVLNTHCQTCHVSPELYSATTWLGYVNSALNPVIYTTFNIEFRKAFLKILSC

Homo sapiens [6] = species: Homo sapiens; experiment: Selectivity ratio of IC50 for human dopamine D2 to IC50 for human 5HT6 receptor
Homo sapiens [7] = species: Homo sapiens; experiment: Selectivity ratio of IC50 for human 5HT1A to IC50 for human 5HT6 receptor
Homo sapiens [8] = species: Homo sapiens; experiment: Selectivity ratio of IC50 for human 5HT1A to IC50 for human 5HT2C
Homo sapiens [9] = species: Homo sapiens; experiment: Selectivity ratio of IC50 for human dopamine D4 to IC50 for human 5HT2C
Homo sapiens [10] = species: Homo sapiens; experiment: Selectivity ratio of IC50 for human 5HT7 to IC50 for human 5HT2C
Homo sapiens [11] = species: Homo sapiens; experiment: Selectivity ratio of IC50 for human dopamine D3 to IC50 for human 5HT6 receptor
Homo sapiens [12] = species: Homo sapiens; experiment: Selectivity ratio of IC50 for human dopamine D2 to IC50 for human 5HT2C
[13] = molecular target: Serotonin 2 receptors; 5-HT2a & 5-HT2c (Homo sapiens) (UniProt P28223+P28335); experiment: Selectivity ratio of IC50 for human 5HT2A to IC50 for human 5HT2C
Serotonin 2 receptors; 5-HT2a & 5-HT2c (Homo sapiens), sequence (P28223 whole entry, looked up, one chain of several): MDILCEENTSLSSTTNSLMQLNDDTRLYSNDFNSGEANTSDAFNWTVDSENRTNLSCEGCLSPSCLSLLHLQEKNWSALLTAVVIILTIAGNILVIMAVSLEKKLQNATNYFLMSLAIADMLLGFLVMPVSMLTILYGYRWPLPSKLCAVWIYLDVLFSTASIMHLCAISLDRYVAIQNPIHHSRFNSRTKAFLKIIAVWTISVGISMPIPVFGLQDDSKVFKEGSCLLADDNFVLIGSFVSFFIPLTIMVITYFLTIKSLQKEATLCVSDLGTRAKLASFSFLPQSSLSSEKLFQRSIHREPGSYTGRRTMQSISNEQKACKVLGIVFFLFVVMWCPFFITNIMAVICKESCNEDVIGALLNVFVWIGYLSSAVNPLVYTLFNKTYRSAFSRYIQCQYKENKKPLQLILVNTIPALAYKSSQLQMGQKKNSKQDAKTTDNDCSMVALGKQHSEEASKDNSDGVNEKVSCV

Homo sapiens [14] = species: Homo sapiens; experiment: Selectivity ratio of IC50 for human dopamine D3 to IC50 for human 5HT2C
Homo sapiens [15] = species: Homo sapiens; experiment: Selectivity ratio of IC50 for human dopamine D4 to IC50 for human 5HT6 receptor
Homo sapiens [16] = species: Homo sapiens; experiment: Selectivity ratio of IC50 for human 5HT2A to IC50 for human 5HT6 receptor
Homo sapiens [17] = species: Homo sapiens; experiment: Selectivity ratio of IC50 for human 5HT7 to IC50 for human 5HT6 receptor
[18] = molecular target: T2, 5-hydroxytryptamine receptor 6; experiment: Antagonist activity at human 5HT6 receptor expressed in human HeLa cells assessed as inhibition of 5-HT-stimulated cAMP production; format: functional, cell-based
Target sequence in this assay (P50406 whole entry): as the sequence (P50406 whole entry) above

[19] = molecular target: T2, 5-hydroxytryptamine receptor 6; experiment: Antagonist activity at human 5HT6 expressed in human HeLa cells assessed as inhibition of 5-HT-stimulated cAMP accumulation
Target sequence in this assay (P50406 whole entry, looked up): as the sequence (P50406 whole entry) above

[20] = molecular target: T5, 5-hydroxytryptamine receptor 2C (Homo sapiens) (UniProt P28335); experiment: Antagonist activity at human 5HT2C expressed in CHO cells assessed as inhibition of 5-HT-stimulated [35S]GTPgamma binding; format: functional, cell-based
T5 sequence (whole entry): T4 sequence (P28335 whole entry)

5-hydroxytryptamine receptor 2A, sequence (P28223 whole entry): as the sequence (P28223 whole entry, looked up, one chain of several) above

IC50 [1]	IC50 (D(4) dopamine receptor)	IC50 [2]	IC50 [3]	IC50 [4]	IC50 (D(2) dopamine receptor)	IC50 [5]	IC50 (D(3) dopamine receptor)	Structure (SMILES)	further results
1420 nM	> 10 µM	7 nM	4430 nM	95 nM	> 10 µM	36 nM	2420 nM	CN1CCN(c2cccc(N(C)S(=O)(=O)c3ccc4ccccc4c3)c2)CC1	–
–	–	–	–	–	–	420 nM	–	CC(C)N(C(=O)c1ccc2ccccc2c1)c1cccc(N2CCN(C)CC2)c1	–
172 nM	> 10 µM	644 nM	1010 nM	3400 nM	> 10 µM	21 nM	2890 nM	CC(C)N(c1cccc(N2CCN(C)CC2)c1)S(=O)(=O)c1ccccc1	–
389 nM	> 10 µM	4 nM	3860 nM	3760 nM	> 10 µM	7 nM	2510 nM	CCCN(c1cccc(N2CCN(C)CC2)c1)S(=O)(=O)c1ccc2ccccc2c1	Ratio IC50 (Homo sapiens [6]): > 25; Ratio IC50 (Homo sapiens [7]): > 25; Ratio IC50 (Homo sapiens [8]): > 25; Ratio IC50 (Homo sapiens [9]): > 25; Ratio IC50 (Homo sapiens [10]): > 25; Ratio IC50 (Homo sapiens [11]): > 25; Ratio IC50 (Homo sapiens [12]): > 25; Ratio IC50 [13]: > 25; Ratio IC50 (Homo sapiens [14]): > 25; Ratio IC50 (Homo sapiens [15]): > 25; Ratio IC50 (Homo sapiens [16]): > 25; Ratio IC50 (Homo sapiens [17]): > 25
–	–	27 nM	–	–	–	1720 nM	–	CC(C)N(c1ccc(N2CCN(C)CC2)cc1)S(=O)(=O)c1ccc2ccccc2c1	–
218 nM	> 10 µM	3 nM	2060 nM	485 nM	> 10 µM	16 nM	1170 nM	CCN(c1cccc(N2CCN(C)CC2)c1)S(=O)(=O)c1ccc2ccccc2c1	–
–	–	–	–	–	–	462 nM	–	CC(C)N(c1cccc(N2CCN(C)CC2)c1)S(=O)(=O)c1ccc([N+](=O)[O-])cc1	–
1620 nM	> 10 µM	13 nM	1580 nM	57 nM	> 10 µM	5150 nM	2100 nM	CN1CCN(c2cccc(NS(=O)(=O)c3ccc4ccccc4c3)c2)CC1	–
122 nM	> 10 µM	16 nM	2870 nM	298 nM	> 10 µM	100 nM	1200 nM	CC(C)N(c1cccc(N2CCN(C)CC2)c1)S(=O)(=O)c1cccc2ccccc12	–
88 nM	> 10 µM	6 nM	3040 nM	672 nM	> 10 µM	6 nM	1430 nM	CN1CCN(c2cccc(N(CC3CC3)S(=O)(=O)c3ccc4ccccc4c3)c2)CC1	–
50 nM	> 10 µM	3 nM	2040 nM	280 nM	> 10 µM	32 nM	943 nM	CN1CCN(c2cccc(N(Cc3ccccc3)S(=O)(=O)c3ccc4ccccc4c3)c2)CC1	–
–	–	–	–	–	–	159 nM	–	CCC(CC)N(c1cccc(N2CCN(C)CC2)c1)S(=O)(=O)c1ccc2ccccc2c1	–
–	–	–	–	–	–	106 nM	–	Cc1ccc(S(=O)(=O)N(c2cccc(N3CCN(C)CC3)c2)C(C)C)cc1	–
–	–	–	–	–	–	97 nM	–	CC(C)N(C(=O)c1cccc2ccccc12)c1cccc(N2CCN(C)CC2)c1	–
–	–	2190 nM	–	–	–	4640 nM	–	CC(C)N(c1ccccc1N1CCN(C)CC1)S(=O)(=O)c1ccc2ccccc2c1	–
–	–	–	–	–	–	34 nM	–	CN1CCN(c2cccc(N(Cc3cccnc3)S(=O)(=O)c3ccc4ccccc4c3)c2)CC1	–
–	–	–	–	–	–	168 nM	–	CCC(C)N(c1cccc(N2CCN(C)CC2)c1)S(=O)(=O)c1ccc2ccccc2c1 (centres undefined)	–
–	–	–	–	–	–	243 nM	–	CC(C)N(c1cccc(N2CCN(C)CC2)c1)S(=O)(=O)c1ccc(Cl)cc1	–
–	–	1180 nM	–	–	–	467 nM	–	CC(C)N(c1cccc(I)c1)S(=O)(=O)c1ccc2ccccc2c1	–
–	–	–	–	–	–	11 nM	–	CN1CCN(c2cccc(N(CC3CCCC3)S(=O)(=O)c3ccc4ccccc4c3)c2)CC1	–
–	–	–	–	–	–	7700 nM	–	CC(C)N(C(=O)c1ccc(Cl)cc1)c1cccc(N2CCN(C)CC2)c1	–

Structure (SMILES)	IC50 [1]	IC50 (D(4) dopamine receptor)	IC50 [2]	IC50 [3]	IC50 [4]	IC50 (D(2) dopamine receptor)	IC50 [5]	IC50 (D(3) dopamine receptor)	further results
CC(C)N(c1ccc(Oc2cccnc2)nc1)S(=O)(=O)c1ccc2ccccc2c1	–	–	422 nM	–	–	–	> 10000 nM	–	–
CC(C)N(C(=O)Nc1ccccc1)c1cccc(N2CCN(C)CC2)c1	–	–	–	–	–	–	> 10000 nM	–	–
CC(C)N(Cc1ccccc1)c1cccc(N2CCN(C)CC2)c1	–	–	–	–	–	–	> 10000 nM	–	–
CC(C)N(c1cccc(N2CCN(C)CC2)c1)S(=O)(=O)c1ccc2ccccc2c1	118 nM	> 1 µM	3 nM	–	> 1000 nM	> 10 µM	4 nM	248 nM	inhibition [18]: Active; Ratio IC50 (Homo sapiens [6]): > 25; Ratio IC50 (Homo sapiens [7]): > 25; Ratio IC50 (Homo sapiens [8]): > 25; inhibition [19]: Active; Ratio IC50 (Homo sapiens [9]): > 25; Ratio IC50 (Homo sapiens [10]): > 25; inhibition [20]: Dose-dependent effect; Ratio IC50 (Homo sapiens [11]): > 25; Ratio IC50 (Homo sapiens [12]): > 25; Ratio IC50 [13]: > 25; Ratio IC50 (Homo sapiens [14]): > 25; Ratio IC50 (Homo sapiens [15]): > 25; Ratio IC50 (Homo sapiens [16]): > 25; Ratio IC50 (Homo sapiens [17]): > 25
CC(C)N(C(=O)c1ccccc1)c1cccc(N2CCN(C)CC2)c1	–	–	–	–	–	–	4160 nM	–	–
